Marks after values point to notes of the source that are not given here.
What was measured:
Type in all cases: biochemical
Aβ 1-42 amyloid fibrils = experiment: Thioflavin T fluorometry: disassembly/disruption of pre-formed Aβ 1-42 amyloid fibrils; conditions: for Fluorescence inhibition, %, at the Aβ 1-42:compound w/w ratios given: overnight (~18 hours) at 37°C, pH 7.0, mean of triplicate ± standard deviation
Description: For the first study, 1 mg of Aβ 1-42 (Bachem Inc., Torrance, CA, USA) was dissolved in 1.0 ml of double distilled water (1 mg/ml solution). 25 µM of Aβ 1-42 was then incubated overnight (~18 hours) at 37°C, in the absence or presence of 100µg/ml of the following compounds: 1) EDTA (Sigma Chemical Company, St. Louis, MO, USA), 2) myricetin (Acros, Somerville, New Jersey, USA), 3) exifone (Acros) 4) pyrogallol (Sigma), 5) tannic acid (Acros), 6) pyrocatechol (Acros), 7) quercetin (Sigma), 8) ellagic acid (Acros), 9) 1,2,4-benzenetriol (Acros), 10) 5-hydroxydopamine (Acros), 11) gallamide hydrate (Acros), 12) gallic acid (Sigma), 13) ethyl gallate (Acros), 14) quinic acid (Acros), 15) propyl gallate (Sigma), and 16) phloroglucide (Acros), each in the presence of 150 mM Tris HCl, 10 mM NaCl (pH 7.0) with 0.02% sodium azide. In this study, the Aβ 1-42:compound weight ratio was 1:1.
For the second study, 1 mg of Aβ 1-42 (Bachem) was dissolved in 1.0 ml of double distilled water (1 mg/ml solution). 25 µM of Aβ 1-42 was then incubated overnight (~18 hours) at 37°C, in the absence or presence of 50µg/ml of the following compounds: 1) gallic acid, 2) ethyl gallate, 3) quinic acid, 4) gallamide trihydrate, 5) ellagic acid, 6) propyl gallate, and 7) pyrogallol, each in the presence of 150 mM Tris HCl, 10 mM NaCl (pH 7.0) with 0.02% sodium azide. In this study, the Aβ 1-42:compound weight ratio was 2:1.
Thioflavin T is known to bind to fibrillar amyloid proteins, and an increase in fluorescence correlates with an increase in amyloid fibril formation, whereas a decrease in fluorescence correlates with a decrease in amyloid fibrils due to disassembly and/or disruption. The Alzheimer's Aβ protein (1-42) when placed in solution, such as distilled water, tends to spontaneously form amyloid fibrils. Using this sensitive assay, any decreases or increases in fluorescence was previously shown to correlate with a decrease or increase in the amount of amyloid fibrils (see the documents cited above), allowing one to identify and quantitate the extent of potential inhibitors and/or enhancers of Alzheimer's Aβ 1-42 amyloid fibrils.
To assess the effects of each compound on potential disassembly/ disruption of preformed Aβ 1-42 fibrils, 50 µl of Aβ 1-42 with or without test compounds (described above) were added to 1.2 ml of 100µM Thioflavin T (Sigma) in 50mM NaH2PO4 (pH 6.0) for fluorometry readings. […] Fluorescence emission at 482 nm was measured on a Turner instrument-model 450 fluorometer at an excitation wavelength of 450 nm. For each determination, the fluorometer was calibrated by zeroing in the presence of the Thioflavin T reagent alone, and by setting the 50 ng/ml riboflavin (Sigma Chemical Co., St. Louis, MO) in the Thioflavin T reagent to 1800 fluorescence units. All fluorescence determinations were based on these references and any fluorescence given off by any of the compounds in the presence of the Thioflavin T reagent was always subtracted from all pertinent readings.
For all fibrillogenesis studies utilizing Thioflavin T fluorometry, as disclosed herein, comparisons of amyloid protein in the presence or absence of test compounds were based on paired Student's t tests with data shown as the mean of triplicate measurements ± standard deviation.

Aβ 1-40 amyloid fibrils = experiment: Modified Congo red-Aβ spectrophotometric assay: disaggregation of pre-formed Aβ 1-40 fibrils (3 days incubation); conditions: Aβ:compound weight ratio 2:1; fibrillized Aβ 1-40 incubated with compound 3 days at 37°C in TBS pH 7.0; Δ absorbance at 540 nm; triplicate
Description: In this study, a Congo red-Aβ spectrophotometric assay (Klunk et al., Anal. Biochem. 266:66-76, 1999) was modified to determine the effectiveness of polyhydroxylated aromatic compounds on the disaggregation of pre-formed Aβ 1-40 amyloid fibrils. For this assay, 1 mg of Aβ 1-40 (Bachem) was incubated for 4 days in distilled water at 37°C to spontaneously produce amyloid fibrils. 25pM of fibrillized Aβ 1-40 was then incubated in triplicate with various test compounds for 3 days at 37°C in Tris-buffered saline (TBS)(100 mM Tris; 50 mM NaCl; pH 7.0, with 0.02% sodium azide), at an Aβ:compound weight ratio of 2:1. Following incubation, 50µl of 360 µM Congo red (Sigma) in distilled water was then added to 250 µl of each incubation mixture, giving a final Aβ:Congo red molar ratio of 1:3. After 10 minutes, the absorbance at 405 nm (reference wavelength to account for the absorbance of Congo red alone at 540 nm) and 540 nm (sample absorbance where "sample" refers to Aβ alone, test compound alone, or Aβ plus test compound, all in the presence of Congo red) was determined using a Biorad Model 550 BLISA Plate Reader (Biorad, Hercules, CA, USA). The absorbance at wavelength 405 nm was automatically subtracted by the ELISA plate reader from the absorbance at wavelength 540 nm (difference is referred to as Δ absorbance)(see Klunk et al. cited above). Therefore, the Δ absorbance reading at 540 nm was proportional to the amount of aggregated Aβ left in solution (Klunk et al.).
For all experiments involving test compounds, the Δ absorbance reading at 540 nm of the test compound alone (in the absence of Aβ), was always subtracted from the corresponding Δ absorbance reading at 540 nm of the test compound in the presence of Aβ. Using this modification of the method of Klunk et al., the use of a greater final concentration of Congo red, i.e. 60µM instead of 14µM, in the presence of fibrillar Aβ gave an overall absorbance at 540 nm that was always below 1.0 Absorbance Unit (AU), and well within the linear absorbance range.
The following polyhydroxylated aromatic containing compounds were tested using the above described Congo red-Aβ spectrophotometric assay to determine their effectiveness on disaggregation of pre-formed Aβ 1-40 amyloid fibrils: 1) gallic acid, 2) ethyl gallate, 3) quinic acid, 4) gallamide trihydrate, 5) ellagic acid, 6) propyl gallate, and 7) pyrogallol.

human amylin [1] = target: T1, human amylin (Homo sapiens, UniProt P10997); experiment: Congo red staining of amylin fibrils on gelatin-coated slides (polarized light); conditions: result in words; amylin + compound after overnight incubation, compared with amylin alone
T1 construct: This amyloid protein involved consists of a 37 amino acid protein known as islet amyloid polypeptide or amylin; purchased Bachem
T1 sequence (P10997 34-70 limits assumed): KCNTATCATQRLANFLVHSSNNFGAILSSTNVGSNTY
Description: Following Thioflavin T fluorometry readings as described in Example 1, 5µl aliquots of amylin only, amylin + myricetin, amylin + exifone, and amylin + tannic acid were also taken, allowed to air dry overnight on gelatin-coated slides, and stained with Congo red as previously described (Castillo et al., Diabetes 47:612-620, 1998).

human amylin [2] = target: T1, human amylin; experiment: Thioflavin T fluorometry: disassembly/disruption of islet amyloid (amylin) fibrils; conditions: 25 µM human amylin, 100µg/ml compound, amylin:compound weight ratio 1:1, overnight (~18 hours) at 37°C, pH 7.0; read-out: Fluorescence inhibition, %
[3] = Aβ 1-42:compound w/w ratio 2:1, 25 µM Aβ 1-42, 50µg/ml compound
[4] = Aβ 1-42:compound w/w ratio 1:1, 25 µM Aβ 1-42, 100µg/ml compound

Row | Structure (SMILES) | Fluorescence inhibition, %, at the Aβ 1-42:compound w/w ratios given (Aβ 1-42 amyloid fibrils; [3]) [%] | Decrease in absorbance, % (Aβ 1-40 amyloid fibrils) | also measured
1 | CCOC(=O)c1cc(O)c(O)c(O)c1 [Ethyl gallate, ethyl gallate] | 30 ± 3.7 | 28 ± 5.0% | –
2 | NC(=O)c1cc(O)c(O)c(O)c1.O.O.O [Gallamide trihydrate, gallamide trihydrate] | 60 ± 2.2 | 31 ± 1.9% | –
3 | O=c1oc2c(O)c(O)cc3c(=O)oc4c(O)c(O)cc1c4c23 [Ellagic acid, ellagic acid] | 62 ± 3.9 | 54 ± 2.8% | –
4 | O=C(O)[C@]1(O)C[C@@H](O)[C@@H](O)[C@H](O)C1 [Quinic acid, quinic acid] | 0.5 ± 3.9 | 0 + 5.0** % | –
5 | Oc1cc(O)cc(-c2c(O)cc(O)cc2O)c1 [Phloroglucide, phloroglucide] | – | – | Fluorescence inhibition, %, at the Aβ 1-42:compound w/w ratios given (Aβ 1-42 amyloid fibrils; [4]): 30 ± 0.6%
6 | Oc1cccc(O)c1O [Pyrogallol, pyrogallol] | 72 ± 3.8 | 63 ± 3.4% | –
7 | O=C(O)CN(CCN(CC(=O)O)CC(=O)O)CC(=O)O [EDTA, reference compound] | – | – | disassembly/disruption of Aβ 1-42 amyloid fibrils (Aβ 1-42 amyloid fibrils; result in words, 100µg/ml compound, 25 µM Aβ 1-42, weight ratio 1:1, overnight at 37°C): no significant disassembly/disruption
8 | O=c1c(O)c(-c2cc(O)c(O)c(O)c2)oc2cc(O)cc(O)c12 [Myricetin, myricetin] | – | – | Congo red staining (human amylin [1]): marked decrease in Congo red staining; inhibition at 100 µg/mL (human amylin [2]): 97.4 ± 0.3%
9 | O=C(c1cc(O)c(O)c(O)c1)c1ccc(O)c(O)c1O [Exifone, exifone] | – | – | Congo red staining (human amylin [1]): marked decrease in Congo red staining; inhibition at 100 µg/mL (human amylin [2]): 99.1 ± 0.5%; Fluorescence inhibition, %, at the Aβ 1-42:compound w/w ratios given (Aβ 1-42 amyloid fibrils; [4]): 93 ± 1.4%
10 | CCCOC(=O)c1cc(O)c(O)c(O)c1 [Propyl gallate, propyl gallate] | 38 ± 4.8 | 17 ± 7.3 % | –

— patent EP1808169B1, “Polyhydroxylated aromatic compounds for the treatment of amyloidosis and alpha-synuclein fibril diseases” (priority 1999, dated 2001)
